# In publication PMC12638379, “An innovative approach to development of new pyrazolylquinolin-2-one hybrids as dual EGFR and BRAF^V600E inhibitors” (Molecular Diversity, 2025):
# Read-outs that look alike come from different tables or passages of the source.
# Tested on: NCI 60 cancer cell lines
# Experiment: NCI anticancer screening over a panel of 60 cancer cells, single concentration 10 µM
# Type: cell-based, human
# Conditions: Homo sapiens, read-out: % Growth Inhibition (GI %)
# Summary of the method: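 Primary single-dose screen at 10 µM over the NCI panel of 60 human tumour cell lines (leukemia, CNS, lung, colon, kidney, ovary, breast, prostate). The standard NCI Developmental Therapeutics Program protocol was used.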
structure (smiles),measurement,setting,value
"C/C(=N\Nc1ccc(C(=O)O)cc1)c1cnn(-c2cc(=O)[nH]c3ccc(Br)cc23)c1C [Compound 4j, (E)-4-(2-(1-(1-(6-bromo-2-oxo-1,2-dihydroquinolin-4-yl)-5-methyl-1H-pyrazol-4-yl)ethylidene)hydrazineyl)benzoic acid]",inhibition at 10 µM,"786-0, Renal cancer 786-0, 10 μM",< 5%
same,inhibition at 10 µM,"A498, Renal cancer A498, 10 μM",< 5%
same,inhibition at 10 µM,"A549, Non-small cell lung cancer A549/ATCC, 10 μM",< 5%
same,inhibition at 10 µM,"ACHN, Renal cancer ACHN, 10 μM",< 5%
same,inhibition at 10 µM,"BT-549, Breast cancer BT-549, 10 μM",< 5%
same,inhibition at 10 µM,"CAKI-1, Renal cancer CAKI-1, 10 μM",14.7%
same,inhibition at 10 µM,"CCRF-CEM, Leukemia CCRF-CEM, 10 μM",< 5%
same,inhibition at 10 µM,"COLO 205, Colon cancer COLO 205, 10 μM",< 5%
same,inhibition at 10 µM,"DU-145, Prostate cancer DU-145, 10 μM",< 5%
same,inhibition at 10 µM,"EKVX, Non-small cell lung cancer EKVX, 10 μM",6.05%
same,inhibition at 10 µM,"HCC 2998, Colon cancer HCC-2998, 10 μM",< 5%
same,inhibition at 10 µM,"HCT-15, Colon cancer HCT-15, 10 μM",< 5%
same,inhibition at 10 µM,"HCT-116, Colon cancer HCT-116, 10 μM",< 5%
same,inhibition at 10 µM,"HL-60, Leukemia HL-60(TB), 10 μM",7.02%
same,inhibition at 10 µM,"HOP-62, Non-small cell lung cancer HOP-62, 10 μM",5.55%
same,inhibition at 10 µM,"HOP-92, Non-small cell lung cancer HOP-92, 10 μM",< 5%
same,inhibition at 10 µM,"HT-29, Colon cancer HT29, 10 μM",< 5%
same,inhibition at 10 µM,"Hs-578T, Breast cancer HS 578T, 10 μM",11.7%
same,inhibition at 10 µM,"IGROV-1, Ovarian cancer IGROV1, 10 μM",< 5%
same,inhibition at 10 µM,"K562, Leukemia K-562, 10 μM",< 5%
same,inhibition at 10 µM,"KM12, Colon cancer KM12, 10 μM",< 5%
same,inhibition at 10 µM,"LOX IMVI, Melanoma LOX IMVI, 10 μM",< 5%
same,inhibition at 10 µM,"Leukemia SR, 10 μM",7.14%
same,inhibition at 10 µM,"MCF7, Breast cancer MCF7, 10 μM",< 5%
same,inhibition at 10 µM,"MDA-MB-231, Breast cancer MDA-MB-231/ATCC, 10 μM",17%
same,inhibition at 10 µM,"MDA-MB-435, Melanoma MDA-MB-435, 10 μM",< 5%
same,inhibition at 10 µM,"MDA-MB-468, Breast cancer MDA-MB-468, 10 μM",< 5%
same,inhibition at 10 µM,"MOLT-4, Leukemia MOLT-4, 10 μM",< 5%
same,inhibition at 10 µM,"Melanoma M14, 10 μM",< 5%
same,inhibition at 10 µM,"Melanoma MALM-3M, 10 μM",14.4%
same,inhibition at 10 µM,"NCI-H23, Non-small cell lung cancer NCI-H23, 10 μM",< 5%
same,inhibition at 10 µM,"NCI-H226, Non-small cell lung cancer NCI-H226, 10 μM",5.42%
same,inhibition at 10 µM,"NCI-H322M, Non-small cell lung cancer NCI-H322M, 10 μM",< 5%
same,inhibition at 10 µM,"NCI-H460, Non-small cell lung cancer NCI-H460, 10 μM",< 5%
same,inhibition at 10 µM,"NCI-H522, Non-small cell lung cancer NCI-H522, 10 μM",< 5%
same,inhibition at 10 µM,"NCI/ADR-RES, Ovarian cancer NCI/ADR-RES, 10 μM",< 5%
same,inhibition at 10 µM,"OVCAR-3, Ovarian cancer OVCAR-3, 10 μM",< 5%
same,inhibition at 10 µM,"OVCAR-4, Ovarian cancer OVCAR-4, 10 μM",< 5%
same,inhibition at 10 µM,"OVCAR-5, Ovarian cancer OVCAR-5, 10 μM",< 5%
same,inhibition at 10 µM,"OVCAR-8, Ovarian cancer OVCAR-8, 10 μM",< 5%
same,inhibition at 10 µM,"Prostate cancer PC-3, 10 μM",< 5%
same,inhibition at 10 µM,"RPMI-8226, Leukemia RPMI-8226, 10 μM",< 5%
same,inhibition at 10 µM,"RXF 393, Renal cancer RXF 393, 10 μM",< 5%
same,inhibition at 10 µM,"SF-268, CNS Cancer SF-268, 10 μM",< 5%
same,inhibition at 10 µM,"SF-295, CNS Cancer SF-295, 10 μM",< 5%
same,inhibition at 10 µM,"SF-539, CNS Cancer SF-539, 10 μM",7.41%
same,inhibition at 10 µM,"SK-MEL-2, Melanoma SK-MEL-2, 10 μM",< 5%
same,inhibition at 10 µM,"SK-MEL-5, Melanoma SK-MEL-5, 10 μM",< 5%
same,inhibition at 10 µM,"SK-MEL-28, Melanoma SK-MEL-28, 10 μM",< 5%
same,inhibition at 10 µM,"SK-OV-3, Ovarian cancer SK-OV-3, 10 μM",4.08%
same,inhibition at 10 µM,"SN12C, Renal cancer SN12C, 10 μM",< 5%
same,inhibition at 10 µM,"SNB-19, CNS Cancer SNB-19, 10 μM",< 5%
same,inhibition at 10 µM,"SNB-75, CNS Cancer SNB-75, 10 μM",17.2%
same,inhibition at 10 µM,"SW-620, Colon cancer SW-620, 10 μM",< 5%
same,inhibition at 10 µM,"T47D, Breast cancer T-47D, 10 μM",7.76%
same,inhibition at 10 µM,"TK-10, Renal cancer TK-10, 10 μM",< 5%
same,inhibition at 10 µM,"U-251, CNS Cancer U251, 10 μM",< 5%
same,inhibition at 10 µM,"UACC-62, Melanoma UACC-62, 10 μM",6.6%
same,inhibition at 10 µM,"UACC-257, Melanoma UACC-257, 10 μM",< 5%
same,inhibition at 10 µM,"UO-31, Renal cancer UO-31, 10 μM",39.3%
